From ChEMBL document CHEMBL1150225, “Cytotoxic cholestane glycosides from the bulbs of Ornithogalum saundersiae” (J Nat Prod, 2001)

How the values were obtained:
Assay type in all cases: functional
MDA-MB-231 = test: Cytotoxicity against human MDA-MB-231 cells
SW-620 = test: Cytotoxicity against human SW620 cells
LOX IMVI = test: Cytotoxicity against human LOXIMVI cells
U-251 = test: Cytotoxicity against human U251 cells
786-0 = test: Cytotoxicity against human 786-0 cells
UACC-257 = test: Cytotoxicity against human UACC257 cells
COLO 205 = test: Cytotoxicity against human COLO205 cells
SNB-19 = test: Cytotoxicity against human SNB19 cells
CCRF-CEM = test: Cytotoxicity against human CCRF-CEM cells
EKVX = test: Cytotoxicity against human EKVX cells
[1] = Cytotoxicity against human MCF7/ADR cells; conditions: NCI/ADR-RES
PC-3 = test: Cytotoxicity against human PC3 cells
SK-MEL-5 = test: Cytotoxicity against human SK-MEL-5 cells
SK-MEL-2 = test: Cytotoxicity against human SK-MEL-2 cells
HOP-62 = test: Cytotoxicity against human HOP62 cells
Malme-3M = test: Cytotoxicity against human MALME-3M cells
[2] = read-out: pLC50 (the source's name) (converted)

COc1ccc(C(=O)O[C@H]2[C@H](O[C@@H]3[C@@H](OC(C)=O)[C@H](O[C@H]4C[C@H]5[C@@H]6CC=C7C[C@@H](O)CC[C@]7(C)[C@H]6CC[C@]5(C)[C@@]4(O)[C@H](C)C(=O)CCC(C)C)OC[C@@H]3O)OC[C@@H](O)[C@@H]2O)cc1
GI50 (MDA-MB-231): 19.1 nM | CC50 (MDA-MB-231; [2]): 5370 nM | TGI (MDA-MB-231; read-out: pTGI (converted)): 1290 nM | GI50 (SW-620): 0.129 nM | CC50 (SW-620; [2]): 21.9 nM | TGI (SW-620; read-out: pTGI (converted)): 0.549 nM | GI50 (LOX IMVI): 0.251 nM | CC50 (LOX IMVI; [2]): 91.2 nM | TGI (LOX IMVI; read-out: pTGI (converted)): 2.29 nM | GI50 (U-251): 0.0257 nM | CC50 (U-251; [2]): 2510 nM | TGI (U-251; read-out: pTGI (converted)): 51.3 nM | GI50 (786-0): 0.0617 nM | CC50 (786-0; [2]): 3470 nM | TGI (786-0; read-out: pTGI (converted)): 1200 nM | GI50 (UACC-257): 0.933 nM | CC50 (UACC-257; [2]): 40.7 nM | TGI (UACC-257; read-out: pTGI (converted)): 1.29 nM | GI50 (COLO 205): 1 nM | CC50 (COLO 205; [2]): 288 nM | TGI (COLO 205; read-out: pTGI (converted)): 1.58 nM | GI50 (SNB-19): 12.9 nM | CC50 (SNB-19; [2]): 2880 nM | TGI (SNB-19; read-out: pTGI (converted)): 331 nM | GI50 (CCRF-CEM): 0.1 nM | CC50 (CCRF-CEM; [2]): 1200 nM | TGI (CCRF-CEM; read-out: pTGI (converted)): 7.08 nM | GI50 (EKVX): 0.182 nM | CC50 (EKVX; [2]): 6610 nM | TGI (EKVX; read-out: pTGI (converted)): 550 nM | GI50 [1]: 24 nM | CC50 [1, 2]: 6610 nM | TGI ([1]; read-out: pTGI (converted)): 2000 nM | GI50 (PC-3): 0.209 nM | CC50 (PC-3; [2]): 389 nM | TGI (PC-3; read-out: pTGI (converted)): 1.58 nM | GI50 (SK-MEL-5): 0.759 nM | CC50 (SK-MEL-5; [2]): 282 nM | TGI (SK-MEL-5; read-out: pTGI (converted)): 43.6 nM | GI50 (SK-MEL-2): 0.347 nM | CC50 (SK-MEL-2; [2]): 5500 nM | TGI (SK-MEL-2; read-out: pTGI (converted)): 17 nM | GI50 (HOP-62): 0.159 nM | CC50 (HOP-62; [2]): 129 nM | TGI (HOP-62; read-out: pTGI (converted)): 2 nM | GI50 (Malme-3M): 0.631 nM | CC50 (Malme-3M; [2]): 2400 nM | TGI (Malme-3M; read-out: pTGI (converted)): 2.29 nM
